Test results reported in US9301951B2 (Ardelyx, Inc., priority 2010, dated 2016).

Columns and labels:
Sprague-Dawley rats [1] = assay: In vivo bolus phosphorus challenge (serum phosphate elevation); details: rat; oral; drug dose 30; phosphate bolus 15 min after compound; serum 30 min post bolus
Method: By pretreating animals with a low phosphorus diet followed by the subsequent dosing of a phosphorus bolus, serum phosphorus levels were monitored after 30 minutes as a surrogate for intestinal phosphorus absorption. […] The in vivo bolus phosphorus challenge model used here mimics this model in rats.
Male, 7-week-old Sprague-Dawley rats (Charles-River laboratories international, Hollister, Calif.) were allowed to acclimatize for a minimum of 3 days before switching to a synthetic low-phosphorus diet (TD.85010, Harlan Teklad, Madison, Wis.) which contains 0.1% phosphorus and 0.6% calcium. At day 5, testing compounds or vehicle alone (as indicated) were orally administered at the indicated dose in a volume of 5 ml/kg, followed by a bolus gavage of monobasic sodium phosphate (1 mmol in 1 ml) 15 min after compound dosing. Serum was collected via retroorbital bleeding 30 min post phosphate bolus and phosphate levels were determined utilizing an ACE ALERA blood chemistry analyzer (Alfa Wassermann Diagnostic Technologies, West Caldwell, N.J.).
The extent of inhibition by test compounds on the elevation of serum phosphate levels in response to the bolus of phosphorus is shown in Table 12 (data are expressed as % Inhibition, with 6-10 animals per data point). The differences between groups were evaluated by one-way analysis of variance with Dunnett's post hoc tests.

rat NaP2b (SLC34A2) = molecular target: T1, rat NaP2b (SLC34A2) (Rattus norvegicus, UniProt Q9JJ09); assay: Inhibition of NaP2b-mediated Pi (33P) uptake in transfected HEK293 cells, rat NaP2b; format: cell-based; details: HEK293 cells transfected with rat NaP2b, 100 uM phosphate, 0.1 nM to 30 uM, read-out: pIC50 range for rat Nap2b (converted)
T1 construct: host or cells: HEK293
T1 sequence (Q9JJ09 1-695): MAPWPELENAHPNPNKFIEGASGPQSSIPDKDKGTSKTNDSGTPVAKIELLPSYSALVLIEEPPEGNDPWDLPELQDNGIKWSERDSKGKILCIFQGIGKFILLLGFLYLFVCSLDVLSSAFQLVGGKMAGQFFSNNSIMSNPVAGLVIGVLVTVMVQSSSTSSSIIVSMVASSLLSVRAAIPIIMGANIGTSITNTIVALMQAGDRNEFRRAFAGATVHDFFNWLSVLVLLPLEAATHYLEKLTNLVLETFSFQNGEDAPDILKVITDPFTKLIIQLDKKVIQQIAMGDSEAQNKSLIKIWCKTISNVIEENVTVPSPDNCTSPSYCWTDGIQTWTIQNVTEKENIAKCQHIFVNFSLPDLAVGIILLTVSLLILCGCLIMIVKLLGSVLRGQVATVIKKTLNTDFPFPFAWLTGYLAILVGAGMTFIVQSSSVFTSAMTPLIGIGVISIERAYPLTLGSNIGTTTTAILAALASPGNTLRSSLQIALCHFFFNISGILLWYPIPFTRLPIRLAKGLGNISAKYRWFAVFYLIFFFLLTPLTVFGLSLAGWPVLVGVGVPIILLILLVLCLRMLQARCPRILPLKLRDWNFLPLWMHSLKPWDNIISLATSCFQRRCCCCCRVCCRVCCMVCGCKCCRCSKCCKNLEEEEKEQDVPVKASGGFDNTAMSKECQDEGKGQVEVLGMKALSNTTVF
In short: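 HEK293 cells transiently transfected with rat NaP2b; 33P-phosphate uptake measured in sodium or choline buffer (100 uM KH2PO4, PiT-silencing agent, pH 7.4) with compound at twelve concentrations, 0.1 nM–30 uM, in duplicate. Lysed cells counted by scintillation; pIC50 derived from concentration-response.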

[2] = Stability of compounds in simulated intestinal fluid (SIF); format: in vitro ADME; details: simulated intestinal fluid (USP, 3 mg/mL pancreatin), 1-20 μM, incubation time 6 hr, relative to t=0
Method: (§1) Test compounds were incubated at 1-20 μM in simulated gastric fluid (SGF; standard USP solution with 3 mg/mL pepsin) or simulated intestinal fluid (SIF; standard USP solution with 3 mg/mL pancreatin) for 3 hr or 6 hr. HPLC-UV or HPLC-MS were used to determine test compound levels using peak area %. Results (Table 14) were reported as the percentage of test compound remaining after incubation in a given condition relative to test compound present at t=0 in the same condition.

[3] = Fecal recovery of orally administered compounds; format: in vivo; details: rat; oral gavage; feces collected until 48 hr after dosing
From the text: In this respect, it is understood that a recovered compound can include the sum of the parent compound and its metabolites derived from the parent compound, e.g., by means of hydrolysis, conjugation, reduction, oxidation, N-alkylation, glucuronidation, acetylation, methylation, sulfation, phosphorylation, or any other modification that adds atoms to or removes atoms from the parent compound, wherein the metabolites are generated via the action of any enzyme or exposure to any physiological environment including, pH, temperature, pressure, or interactions with foodstuffs as they exist in the digestive milieu. Measurement of fecal recovery of compound and metabolites can be carried out using standard methodology. For example, compound can be administered orally at a suitable dose (e.g., 10 mg/kg) and feces are then collected at predetermined times after dosing (e.g., 24 hours, 48 hours, 72 hours). Parent compound and metabolites can be extracted with organic solvent and analyzed quantitatively using mass spectrometry. A mass balance analysis of the parent compound and metabolites (including, parent=M, metabolite 1 [M+16], and metabolite 2 [M+32]) can be used to determine the percent recovery in the feces.
Quantitative determination of test compound level in feces after oral gavage was performed using the same set of animals used to determine test compound concentration in plasma (Example 352). The animals were kept in metabolic cages and feces were collected from the time of dosing until 48 hr after dosing. Upon collection, feces were dried by lyophilization and ground to a visually homogenous powder. Duplicate samples of ground feces from each individual animal were weighed out and extracted using organic solvent. Extracted samples were then diluted into mobile phase and test compound levels were quantitatively determined by LC-MS/MS analysis as described in Example 352 except that the standard curve was prepared in a feces matrix. Extraction conditions were not optimized for individual compounds, and thus may represent a minimal level of recovery.

[4] = Stability of compounds in simulated gastric fluid (SGF); format: in vitro ADME; details: simulated gastric fluid (USP, 3 mg/mL pepsin), 1-20 μM, incubation time 6 hr, relative to t=0
Method: as §1

human NaP2b (SLC34A2) = molecular target: T2, human NaP2b (SLC34A2) (Homo sapiens, UniProt O95436); assay: Inhibition of NaP2b-mediated Pi (33P) uptake in transfected HEK293 cells, human NaP2b; format: cell-based; details: HEK293 cells transfected with human NaP2b, 100 uM phosphate, 0.1 nM to 30 uM, read-out: pIC50 range for human NaP2b (converted)
T2 construct: host or cells: HEK293
T2 sequence (O95436 1-690): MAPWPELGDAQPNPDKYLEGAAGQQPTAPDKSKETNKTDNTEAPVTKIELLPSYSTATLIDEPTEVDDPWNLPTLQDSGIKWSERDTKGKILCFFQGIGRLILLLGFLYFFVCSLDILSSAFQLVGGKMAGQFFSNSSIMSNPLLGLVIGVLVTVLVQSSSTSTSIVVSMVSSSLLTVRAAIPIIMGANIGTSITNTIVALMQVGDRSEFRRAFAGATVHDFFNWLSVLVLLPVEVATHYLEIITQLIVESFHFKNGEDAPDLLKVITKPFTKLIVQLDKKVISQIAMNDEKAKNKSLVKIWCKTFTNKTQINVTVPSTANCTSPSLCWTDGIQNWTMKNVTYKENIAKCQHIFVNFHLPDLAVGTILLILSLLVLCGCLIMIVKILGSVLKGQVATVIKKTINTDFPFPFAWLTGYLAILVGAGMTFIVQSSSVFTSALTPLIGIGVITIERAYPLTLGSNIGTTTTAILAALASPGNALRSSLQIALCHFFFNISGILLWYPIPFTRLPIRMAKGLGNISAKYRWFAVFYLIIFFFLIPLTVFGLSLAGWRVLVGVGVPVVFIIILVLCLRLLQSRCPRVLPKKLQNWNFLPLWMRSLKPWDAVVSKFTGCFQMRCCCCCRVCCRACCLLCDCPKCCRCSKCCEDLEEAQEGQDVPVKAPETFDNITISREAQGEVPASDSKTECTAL
Method: HEK293 cells were obtained from the American Type Culture collection and propagated per their instructions. Expression clones for rat and human NaP2b (SLC34A2) were obtained from Open Biosystems (Catalog numbers MRN1768-9510282, and MHS1010-99823026, respectively). The sequence of the human protein was mutated to insert a threonine after residue 37, and to introduce a N39D mutation.
The rate of phosphate (Pi) uptake into HEK293 cells was measured using a modification of the method described by Mohrmann et al. (Mohrmann, I., Mohrmann, M., Biber, J., and Murer, H. (1986) Am. J. Phys. 250(3 Pt 1):G323-30.) Transfected HEK293 cells were treated with a pharmacological agent to minimize endogenous PiT-mediated phosphate transport activity, such that the only remaining sodium-dependent phosphate transport activity is that which was bestowed by introduction of the NaP2b genes.
Cells were seeded into 96-well plates at 25,000 cells/well and cultured overnight. Lipofectamine 2000 (Invitrogen) was used to introduce the NaP2b cDNA, and the cells were allowed to approach confluence during a second overnight incubation. […] Cells were then overlayed with either choline uptake buffer or sodium uptake buffer (14 mM Tris, 137 mM sodium chloride, 5.4 mM KCl, 2.8 mM CaCl2, 1.2 mM MgSO4, 100 uM KH2PO4, PiT-silencing agent, 1 mg/mL Bovine Serum Albumin, pH 7.4) containing 6-9 uCi/mL ^33P orthophosphoric acid (Perkin Elmer) and test compound. Each compound was tested at twelve concentrations ranging from 0.1 nM to 30 uM. Assays were run in duplicate.
After incubation for 3-30 minutes at room temperature, assay mixtures were removed, and the cells were washed twice with ice cold stop solution (137 mM sodium chloride, 14 mM Tris, pH 7.4). Cells were lysed by addition of 20 μL 0.1% Tween 80 followed by 100 μL scintillation fluid, and counted using a TopCount (Perkin Elmer).
pIC50 (the negative log of the […]) values of the test compounds were calculated using GraphPad Prism.

Sprague-Dawley rats [5] = assay: In vivo co-dosing in chow (urine P out / P consumed); details: feed or water; rat; drug in chow, nominal 100 mg/kg/day (mean dose per line in table); urine 24-96 h; read-out: Mean % inhibition Urine Pout/P consumed
From the text: Male, 7-week-old Sprague-Dawley rats (Charles-River laboratories international, Hollister, Calif.) were allowed to acclimate for a minimum of 3 days. The experiment was initiated by switching animals to a synthetic diet (0.6% phosphorus and 0.6% calcium, Harlan Teklad TD.84122) for four days. After this time, the animals were placed into metabolic cages for daily monitoring of food and water consumption, as well as urine and fecal collections. Test compounds were incorporated into the powdered diet listed above containing 3% chocolate flavoring (w/w, BioServ #7345) at 1.3 mg test compound per gram of diet to achieve an average daily nominal dose of 100 mg/kg/day. The actual dose received by each animal was later determined by measuring prepared diet consumption and body weight. Urine samples were collected in three daily periods from 24-48, 48-72, and 72-96 hours of drug dosing. […] Phosphorus levels in the urine were determined by anion exchange chromatography using a Dionex ICS-3000 ion chromatography system. […] Elution of urine phosphate ions was monitored via conductivity detector and reported as ppm relative to a standard ion solution containing phosphate. Daily urinary P output relative to the P consumed in the prepared diet for each animal was calculated. […] The differences between the means of control and treated groups were evaluated by t tests. […]

Compound	IC50 (rat NaP2b (SLC34A2)) [µM]	IC50 (human NaP2b (SLC34A2)) [µM]	% Inhibition of Serum P elevation (Sprague-Dawley rats [1])	% remaining, SIF [2]	% recovered in feces [3] [%]	% remaining, SGF [4] [%]	inhibition in vivo at 100 mg/kg/day (Sprague-Dawley rats [5]) [%]
CN(CCN1CCOCC1)C(=O)c1cccc(C(=O)Nc2ccc(OC3CCC3)cc2-c2cc(C(=O)NCc3cccc(C(F)(F)F)c3)ccn2)c1 [Example 26, N1-(4-Cyclobutoxy-2-(4-((3-(trifluoromethyl)benzyl)carbamoyl)pyridin-2-yl)phenyl)-N3-methyl-N3-(2-morpholinoethyl)isophthalamide]	1 to 7.94			60-80%	<20	>80	
CCN(CC)c1ccc(NC(=O)c2cccc(COCCOCCOCCOCCOCCOCCOC(=O)NCCOCCOCCOCCOCCOCCOCCOC)c2)c(-c2cc(C(=O)NCc3cccc(C(F)(F)F)c3)ccn2)c1 [Example 174, 1-(3-(4-(diethylamino)-2-(4-(3-(trifluoromethyl)benzylcarbamoyl)pyridin-2-yl)phenylcarbamoyl)phenyl)-2,5,8,11,14,17-hexaoxanonadecan-19-yl 2,5,8,11,14,17,20-heptaoxadocosan-22-ylcarbamate]	1 to 7.94	< 1		>80%		>80	

The next lines start with results.

IC50 (rat NaP2b (SLC34A2)) [µM]	IC50 (human NaP2b (SLC34A2)) [µM]	Compound	% Inhibition of Serum P elevation (Sprague-Dawley rats [1])	% remaining, SIF [2]	% recovered in feces [3] [%]	% remaining, SGF [4] [%]	inhibition in vivo at 100 mg/kg/day (Sprague-Dawley rats [5]) [%]
10 to 31.6		O=C(O)CCSCc1cccc(C(=O)Nc2ccc(N3CCOCC3)cc2-c2cc(C(=O)NCc3cccc(C(F)(F)F)c3)ccn2)c1 [Example 14, 3-((3-((4-Morpholino-2-(4-((3-(trifluoromethyl)benzyl)carbamoyl)pyridin-2-yl)phenyl)carbamoyl)benzyl)thio)propanoic acid]	10-20%				
1 to 7.94		O=C(O)CCSCc1cccc(C(=O)Nc2ccc(Cl)cc2-c2cc(C(=O)NCc3cccc(C(F)(F)F)c3)ccn2)c1 [Example 21, 3-((3-((4-Chloro-2-(4-((3-(trifluoromethyl)benzyl)carbamoyl)pyridin-2-yl)phenyl)carbamoyl)benzyl)thio)propanoic acid]	10-20%				
< 1	< 1	CN(CCN1CCOCC1)C(=O)c1cccc(C(=O)Nc2ccc(N3CCCCC3)cc2-c2cc(C(=O)N[C@H]3CCCc4ccccc43)ccn2)c1 [Example 37, (S)—N1-Methyl-N1-(2-morpholinoethyl)-N3-(4-(piperidin-1-yl)-2-(4-((1,2,3,4-tetrahydronaphthalen-1-yl)carbamoyl)pyridin-2-yl)phenyl)isophthalamide]					≤ 10
